In patent US5656660A, “Compositions and methods for treating mast-cell mediated conditions” (Arris Pharmaceutical Corporation, priority 1995, dated 1997):

Each compound was assayed against tryptase (assay: In vitro tryptase inhibition assay). Settings: tosyl-Gly-Pro-Lys-p-nitroanilide 0.5 mM; 1 h preincubation at room temperature; pH 8.2.
Assay type: biochemical, human
Protocol: The compounds to be assayed (approximately 1 mg) were dissolved in 200 μL dimethylsulfoxide (DMSO) and diluted 1:10 into buffer containing 50 millimolar (mM) Tris-HCl (pH 8.2), 100 mM sodium chloride, and 0.05% polyoxyethylenesorbitan monolaurate (Tween-20°, available from Sigma, St. Louis, Mo.). Seven additional threefold dilutions were made from the initial dilution into the same buffer supplemented with 10% DMSO. Aliquots (50 microliters, μL) from each of the eight dilutions in the series were transferred to individual wells in a 96-well U-bottom microtiter plate. […] The tryptase solution was prepared by placing 60 μg/mL of tryptase into solution with 10 mM MES (2-[N-Morpholino]ethane sulfonic acid) containing 2 mM CaCl2, 20% glycerol and 50 μg/mL heparin. The enzyme reaction was initiated with the addition of the synthetic tripeptide substrate, tosyl-Gly-Pro-Lys-p-nitroanilide (available from Sigma, 25 μL; 0.5 mM final concentration). […] Initial velocity measurements calculated from the progress curves by a kinetic analysis program (BatchKi; Petr Kuzmic, University of Wisconsin, Madison, Wis.) were used to determine apparent inhibition constants for each inhibitor.

Ki | SMILES
9 nM | N=C(N)Nc1ccc(CNC(=O)CCNC(=O)OCc2ccc(COC(=O)NCCC(=O)NCc3ccc(NC(=N)N)cc3)cc2)cc1 [Example 3]
289 nM | C[C@H](NC(=O)OCc1ccc(COC(=O)N[C@@H](C)C(=O)NCc2ccc(NC(=N)N)cc2)cc1)C(=O)NCc1ccc(NC(=N)N)cc1 [Example 5, Bis((4-guanidylbenzyl)-L-alanineamide-N^α -carbonyl)-1,4-dimethanolbenzene]
227 nM | N=C(N)Nc1ccc(CNC(=O)[C@H](Cc2ccccc2)NC(=O)OCc2ccc(COC(=O)N[C@@H](Cc3ccccc3)C(=O)NCc3ccc(NC(=N)N)cc3)cc2)cc1 [Example 7]
150 nM | NCc1ccc(CNC(=O)CC(=O)NCc2ccc(CNC(=O)CC(=O)NCc3ccc(CN)cc3)cc2)cc1 [Example 9, N,N'-Bis(N-(4-aminomethylbenzl)-malonamido)-p-xylylene diamide]
8.8 nM | NCc1ccc(CNC(=O)CCCC(=O)NCc2ccc(CNC(=O)CCCC(=O)NCc3ccc(CN)cc3)cc2)cc1 [Example 10]
127 nM | NCc1cccc(CNC(=O)CCC(=O)NCc2cccc(CNC(=O)CCC(=O)NCc3cccc(CN)c3)c2)c1 [Example 11, N,N'-Bis(N-(3-aminomethylbenzyl)succinamido)-m-xylylene diamide]
86 nM | NCc1ccc(C(=O)NCCCC(=O)NCc2ccc(CNC(=O)CCCNC(=O)c3ccc(CN)cc3)cc2)cc1 [Example 12, N,N'-Bis(N-(4-aminomethylbenzamido)-4-aminobutyric)-p-xylylene diamide]
31 nM | C[C@H](NC(=O)OCc1ccc(COC(=O)N[C@@H](C)C(=O)NCc2ccc(CN)cc2)cc1)C(=O)NCc1ccc(CN)cc1 [Example 13, Bis(p-xylylenediamine-L-alanine)-1,4-benzenedimethanol dicarbamate]
366 nM | C[C@@H](NC(=O)OCc1ccc(COC(=O)N[C@H](C)C(=O)NCc2ccc(CN)cc2)cc1)C(=O)NCc1ccc(CN)cc1 [Example 14, Bis(p-xylylenediamine-D-alanine)-1,4-benzenedimethanol dicarbamate]
396 nM | NCc1ccc(C(=O)NCCNC(=O)OCc2ccc(COC(=O)NCCNC(=O)c3ccc(CN)cc3)cc2)cc1 [Example 16, N,N'-Bis(4-aminomethylbenzamidoethylene)-1,4-benzenedimethanol dicarbamate]
5 nM | NCc1ccc(C(=O)NCCCNC(=O)OCc2ccc(COC(=O)NCCCNC(=O)c3ccc(CN)cc3)cc2)cc1 [Example 19, N,N'-Bis(4-aminomethylbenzamidopropylene)-1,4-benzenedimethanol dicarbamate]
107 nM | CN(CCCC(=O)NCc1ccc(CN)cc1)C(=O)c1ccc(C(=O)N(C)CCCC(=O)NCc2ccc(CN)cc2)cc1 [Example 20, N,N'-Bis(N-[4-aminomethylbenzyl)butyramido)-N,N'-bis(methyl)terephthalamide]
118 nM | CN(Cc1ccc(CN(C)C(=O)CCC(=O)NCC2CCC(CN)CC2)cc1)C(=O)CCC(=O)NCC1CCC(CN)CC1 (centres unmarked) [Example 25, N,N'-Bis(methyl)-bis(N-(4-aminomethylcyclohexylmethyl)succinamido)-p-xylylene diamide]
643 nM | CC1(C)O[C@@H](C(=O)NCc2ccc(CN)cc2)[C@H](C(=O)NCc2ccc(CNC(=O)[C@@H]3OC(C)(C)O[C@H]3C(=O)NCc3ccc(CN)cc3)cc2)O1 [Example 28, N,N'-Bis(N-(4-aminomethylbenzyl)-dimethyl-2,3-isopropylidenetartaramido)-p-xylylene diamide]
12 nM | NCC1CCC(CNC(=O)CNC(=O)OCc2ccc(COC(=O)NCC(=O)NCC3CCC(CN)CC3)cc2)CC1 (centres unmarked) [Example 31, Bis(1,4-cyclohexyldimethylamineglycine)-1,4-benzenedimethanol dicarbamate]
874 nM | CN(Cc1ccc(CN)cc1)C(=O)CNC(=O)OCc1ccc(COC(=O)NCC(=O)N(C)Cc2ccc(CN)cc2)cc1 [Example 32]
48 nM | NC[C@H]1CC[C@H](C(=O)NCCCCNC(=O)OCc2ccc(COC(=O)NCCCCNC(=O)[C@H]3CC[C@H](CN)CC3)cc2)CC1 [Example 33, N,N'-Bis(trans-4-aminomethyl-cyclohexyl-1-amidobutyl)-1,4-benzene dimethanol dicarbamate]
222 nM | NCc1ccc(C(=O)NCCCCNC(=O)c2ccc(C(=O)NCCCCNC(=O)c3ccc(CN)cc3)cc2)cc1 [Example 34, N,N'-Bis[4-(aminomethylbenzamido)butyl]-terephthalyldiamide]
682 nM | N=C(N)Nc1ccc(CNC(=O)CC(=O)NCc2ccc(CNC(=O)CC(=O)NCc3ccc(NC(=N)N)cc3)cc2)cc1 [Example 36, N,N'-Bis(N-(4-Guanidylbenzylamine)-malonamido)-p-xylylene diamide]
40 nM | N=C(N)Nc1ccc(CNC(=O)CCC(=O)NCc2ccc(CNC(=O)CCC(=O)NCc3ccc(NC(=N)N)cc3)cc2)cc1 [Example 37]
463 nM | N=C(N)Nc1ccc(CNC2=CCCC(=O)N2C(=O)OCc2ccc(COC(=O)N3C(=O)CCC=C3NCc3ccc(NC(=N)N)cc3)cc2)cc1 [Example 40, Bis((R,S)-2-(4-guanidinobenzylamino)-2,3-dehydro-6-piperidone)-1,4-benzenedimethanol dicarbamate]
783 nM | NCc1ccc(NC(=O)CNC(=O)OCc2ccc(COC(=O)NCC(=O)Nc3ccc(CN)cc3)cc2)cc1 [Example 42, Bis((4-aminomethylanilido)glycine)-1,4-benzenedimethanol dicarbamate]

Continued, compound first:

SMILES | Ki
NCc1ccc(CNC(=O)CNC(=O)OCc2ccc(COC(=O)NCC(=O)NCc3ccc(CN)cc3)cc2)cc1 [Example 1, Bis(p-xylylenediamineglycine)-1,4-benzenedimethanol dicarbamate] | 0.56 nM
N=C(N)Nc1ccc(CNC(=O)[C@@H]2CCCN2C(=O)OCc2ccc(COC(=O)N3CCC[C@H]3C(=O)NCc3ccc(NC(=N)N)cc3)cc2)cc1 [Example 4, Bis((4-quanidylbenzyl)-L-prolineamide-N^α -carbonyl)-1,4-dimethanolbenzene] | 4000 nM
C[C@@H](NC(=O)OCc1ccc(COC(=O)N[C@H](C)C(=O)NCc2ccc(NC(=N)N)cc2)cc1)C(=O)NCc1ccc(NC(=N)N)cc1 [Example 6] | 364 nM
NCc1ccc(CNC(=O)CCCNC(=O)c2ccc(C(=O)NCCCC(=O)NCc3ccc(CN)cc3)cc2)cc1 [Example 15, N,N'-Bis(N-(4-aminomethylbenzyl)butyramido)terephthalamide] | 11 nM
CN(Cc1ccc(CN(C)C(=O)CCCC(=O)NCc2ccc(CN)cc2)cc1)C(=O)CCCC(=O)NCc1ccc(CN)cc1 [Example 17, N,N'-Bis(N-(4-aminomethylbenzyl)glutaramido)-N,N'-bis(methyl)-p-xylylene diamide] | 14 nM
CN(CC(=O)NCc1ccc(CN)cc1)C(=O)OCc1ccc(COC(=O)N(C)CC(=O)NCc2ccc(CN)cc2)cc1 [Example 18, Bis(p-xylylenediaminesarcosine)-1,4-benzenedimethanol dicarbamate] | 5 nM
NC[C@H]1CC[C@H](C(=O)NCCCNC(=O)OCc2ccc(COC(=O)NCCCNC(=O)[C@H]3CC[C@H](CN)CC3)cc2)CC1 [Example 22, N,N'-Bis(trans-4-aminomethylcyclohexyl-1-amido-propylene)-1,4-benzenedimethanol dicarbamate] | 918 nM
CN(Cc1ccc(CN(C)C(=O)CCC(=O)NCc2ccc(CN)cc2)cc1)C(=O)CCC(=O)NCc1ccc(CN)cc1 [Example 23] | 5 nM
NCC1CCC(CNC(=O)CCCC(=O)NCc2ccc(CNC(=O)CCCC(=O)NCC3CCC(CN)CC3)cc2)CC1 (centres unmarked) [Example 24, N,N'-Bis(N-(4-aminomethylcyclohexylmethyl)-glutaramido)-p-xylylene diamide] | 55 nM
NCC1CCC(CNC(=O)CCC(=O)NCc2ccc(CNC(=O)CCC(=O)NCC3CCC(CN)CC3)cc2)CC1 (centres unmarked) [Example 26, N,N'-Bis(N-(4-aminomethylcyclohexylmethyl)-succinamido)-p-xylylene diamide] | 123 nM
CN(Cc1ccc(CN(C)C(=O)CCCC(=O)NCC2CCC(CN)CC2)cc1)C(=O)CCCC(=O)NCC1CCC(CN)CC1 (centres unmarked) [Example 27, N,N'-Bis(methyl)-bis(N-(4-aminomethylcyclohexylmethyl)-glutaramido)-p-xylylene didmine] | 138 nM
NCC1CCCC(CNC(=O)CCC(=O)NCc2ccc(CNC(=O)CCC(=O)NCC3CCCC(CN)C3)cc2)C1 (centres unmarked) [Example 29, N,N'-Bis(N-(3-aminomethylcyclohexylmethyl)-succinamido)-p-xylylene diamide] | 1100 nM
CN(Cc1ccc(CN)cc1)C(=O)CCC(=O)NCc1ccc(CNC(=O)CCC(=O)N(C)Cc2ccc(CN)cc2)cc1 [Example 30, N,N,-Bis(N-methyl-N-(4-aminomethylbenzyl)-succinamido)-p-xylylene diamide] | 2300 nM
NCc1ccc(CNC(=O)CCC(=O)NCc2ccc(CNC(=O)CCC(=O)NCc3cccc(CN)c3)cc2)cc1 [Example 35, N-(3-Aminomethylbenzylsuccinamido)-N'-(4-aminomethyl-benzylsuccinamido)-p-xylylene diamide] | 19 nM
N=C(N)Nc1ccc(CNC(=O)CCCC(=O)NCc2ccc(CNC(=O)CCCC(=O)NCc3ccc(NC(=N)N)cc3)cc2)cc1 [Example 38] | 100 nM
NCc1ccc(CNC(=O)CCC(=O)Nc2ccc(NC(=O)CCC(=O)NCc3ccc(CN)cc3)cc2)cc1 [Example 39, N,N'-Bis((N-(4-aminomethylbenzyl)succinamido))-p-phenethylenediamide] | 6 nM
